Data published in PubChem BioAssay AID330 (DTP/NCI, 2004).
Values joined by “and” are separate entries in the source; they are usually repeats but may differ in a detail not shown here. Equal entries are not always repeated. Toxic doses and inconclusive results are not listed. How the source made its calls: active means survival T/C of 150% or more; inactive means T/C below 125% in these data. Peptide text beside a SMILES is read from it. * marks the point of attachment. Cbz = O=C(OCc1ccccc1)*; OBn = c1ccc(CO*)cc1

System: P388 leukemia ip, CD2F1 mice, survival T/C
Assay: NCI In Vivo Anticancer Drug Screen. Data for tumor model P388 Leukemia (intraperitoneal) in CD2F1 (CDF1) mice
Conditions: endpoint: median survival time, higher = longer survival
How it was run: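 Mice carrying the transplanted tumor received test compound or vehicle. Survival was recorded in each group, and the value is the treated-group measurement divided by that of the vehicle-treated control group.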

[1] = dose: 60.0 mg/kg/injection, schedule: Q01DX005 (ip), vehicle: saline with Tween-80
[2] = dose: 120.0 mg/kg/injection, schedule: Q01DX005 (ip), vehicle: saline with Tween-80
[3] = dose: 240.0 mg/kg/injection, schedule: Q01DX005 (ip), vehicle: saline with Tween-80
[4] = dose: 50.0 mg/kg/injection, schedule: Q01DX005 (ip), vehicle: Klucel (hydroxypropylcellulose) (HPC)
[5] = dose: 100.0 mg/kg/injection, schedule: Q01DX005 (ip), vehicle: Klucel (hydroxypropylcellulose) (HPC)
[6] = dose: 200.0 mg/kg/injection, schedule: Q01DX005 (ip), vehicle: Klucel (hydroxypropylcellulose) (HPC)
[7] = dose: 60.0 mg/kg/injection, schedule: Q01DX005 (ip), vehicle: saline

Measured: T/C

COC(=O)c1cc2ccc1OCC#CC#CCOc1ccc(cc1C(=O)OC)OCC#CC#CCO2
inactive: [1] 89 % of control | [2] 88 % of control | [3] 88 % of control

CCOC(=O)Cn1c(=O)cc(-c2ccccc2)oc1=O
inactive: dose: 50.0 mg/kg/injection, schedule: Q01DX009 (ip), vehicle: saline with Tween-80 106 % of control | dose: 100.0 mg/kg/injection, schedule: Q01DX009 (ip), vehicle: saline with Tween-80 107 % of control | dose: 200.0 mg/kg/injection, schedule: Q01DX009 (ip), vehicle: saline with Tween-80 90 % of control

Cc1ccc(S(=O)(=O)Nc2ccc3nc(C)oc3c2)cc1
inactive: dose: 100.0 mg/kg/injection, schedule: Q01DX001 (ip), vehicle: saline with Tween-80 100 % of control | dose: 200.0 mg/kg/injection, schedule: Q01DX001 (ip), vehicle: saline with Tween-80 100 % of control | dose: 400.0 mg/kg/injection, schedule: Q01DX001 (ip), vehicle: saline with Tween-80 100 % of control

CN(O)C(=O)CCCCCCCCC(=O)N(C)O
inactive: [1] 103 % of control | [2] 105 % of control | [3] 114 % of control

CCOC(=O)CNC(=O)C(CSSCC(NC(=O)OCc1ccccc1)C(=O)OC)NC(=O)C(NC(=O)OCc1ccccc1)C(C)C (stereo unspecified)
inactive: [4] 100 % of control | [5] 98 % of control | [6] 95 % of control

CCN(CC)CCOCc1cccc2c(=O)cc(-c3ccccc3)oc12
inactive: dose: 50.0 mg/kg/injection, schedule: Q01DX009 (ip), vehicle: saline 105 % of control | dose: 100.0 mg/kg/injection, schedule: Q01DX009 (ip), vehicle: saline 101 % of control

O=C1NCCN1C(=O)Nc1ccc(Cl)c(Cl)c1
inactive: dose: 50.0 mg/kg/injection, schedule: Q01DX009 (ip), vehicle: Klucel (hydroxypropylcellulose) (HPC) 116 % of control | dose: 100.0 mg/kg/injection, schedule: Q01DX009 (ip), vehicle: Klucel (hydroxypropylcellulose) (HPC) 108 % of control | dose: 200.0 mg/kg/injection, schedule: Q01DX009 (ip), vehicle: Klucel (hydroxypropylcellulose) (HPC) 110 % of control

CCCCCCCCCC(O)C(O)C1CCC(C2CCC(C(O)CCCCCCCCCCCCC3=CC(C)OC3=O)O2)O1 (stereo unspecified)
inactive: dose: 0.35 mg/kg/injection, schedule: Q01DX005 (ip), vehicle: Klucel (hydroxypropylcellulose) (HPC) 103 % of control and 97 % of control | dose: 0.7 mg/kg/injection, schedule: Q01DX005 (ip), vehicle: Klucel (hydroxypropylcellulose) (HPC) 100 % of control and 99 % of control | dose: 1.4 mg/kg/injection, schedule: Q01DX005 (ip), vehicle: Klucel (hydroxypropylcellulose) (HPC) 112 % of control and 100 % of control | dose: 2.8 mg/kg/injection, schedule: Q01DX005 (ip), vehicle: Klucel (hydroxypropylcellulose) (HPC) 106 % of control and 113 % of control

COc1ccc(/C=N/N2CN(C(C)C(=O)O)B(NCCC(C)C)N=C2N)cc1OC (stereo unspecified)
inactive: [7] 104 % of control | dose: 120.0 mg/kg/injection, schedule: Q01DX005 (ip), vehicle: saline 105 % of control

COC(=O)C1=[N+]([O-])OC(C(=O)OC)C1c1ccc(F)cc1 (stereo unspecified)
inactive: [1] 93 % of control | [2] 90 % of control | [3] 94 % of control

Cc1nn2c(=O)c3c([N+](=O)[O-])c(C)nn3c(=O)c2c1[N+](=O)[O-]
inactive: [4] 105 % of control | [5] 97 % of control | [6] 100 % of control

CC(C)OC(CCC#N)c1ccc(Cl)cc1 (stereo unspecified)
inactive: dose: 50.0 mg/kg/injection, schedule: Q04DX003 (ip), vehicle: other 105 % of control | dose: 100.0 mg/kg/injection, schedule: Q04DX003 (ip), vehicle: other 114 % of control | dose: 200.0 mg/kg/injection, schedule: Q04DX003 (ip), vehicle: other 99 % of control

Cc1ccc(S(=O)(=O)OCCOCCOCCOCCOCCOCCOCCOCCOCCOCCOCCOCCOCCOCCOS(=O)(=O)c2ccc(C)cc2)cc1
inactive: dose: 37.5 mg/kg/injection, schedule: Q01DX001 (ip), vehicle: saline with Tween-80 101 % of control | dose: 75.0 mg/kg/injection, schedule: Q01DX001 (ip), vehicle: saline with Tween-80 104 % of control | dose: 150.0 mg/kg/injection, schedule: Q01DX001 (ip), vehicle: saline with Tween-80 102 % of control

COC(=O)c1ccc(Nc2cn[nH]n2)cc1
inactive: [4] 101 % of control | [5] 100 % of control | [6] 98 % of control

CCOc1ccccc1C1N(C)CCCN1C
inactive: dose: 6.25 mg/kg/injection, schedule: Q01DX009 (ip), vehicle: saline sonified 90 % of control | dose: 12.5 mg/kg/injection, schedule: Q01DX009 (ip), vehicle: saline sonified 95 % of control | dose: 25.0 mg/kg/injection, schedule: Q01DX009 (ip), vehicle: saline sonified 86 % of control

CN(C)CCC[n+]1cc2c3ccccc3c(N)cc2c2ccccc21
inactive: dose: 3.13 mg/kg/injection, schedule: Q04DX003 (ip), vehicle: water 104 % of control | dose: 6.25 mg/kg/injection, schedule: Q04DX003 (ip), vehicle: water 121 % of control | dose: 12.5 mg/kg/injection, schedule: Q04DX003 (ip), vehicle: water 109 % of control | dose: 25.0 mg/kg/injection, schedule: Q04DX003 (ip), vehicle: water 109 % of control

Nc1n[nH]c(CCCCc2nc(N)n[nH]2)n1
inactive: dose: 60.0 mg/kg/injection, schedule: Q01DX005 (ip), vehicle: Klucel (hydroxypropylcellulose) (HPC) 97 % of control | dose: 120.0 mg/kg/injection, schedule: Q01DX005 (ip), vehicle: Klucel (hydroxypropylcellulose) (HPC) 99 % of control | dose: 240.0 mg/kg/injection, schedule: Q01DX005 (ip), vehicle: Klucel (hydroxypropylcellulose) (HPC) 98 % of control

[CH3][Sn]([CH2]c1ccccc1)([CH2]c1ccccc1)[c]1ccccc1
inactive: dose: 100.0 mg/kg/injection, schedule: Q04DX003 (ip), vehicle: saline with Tween-80 98 % of control | dose: 200.0 mg/kg/injection, schedule: Q04DX003 (ip), vehicle: saline with Tween-80 105 % of control | dose: 400.0 mg/kg/injection, schedule: Q04DX003 (ip), vehicle: saline with Tween-80 100 % of control

CCCn1c2nc(=O)[nH]c(=O)c-2cc2ccccc21
inactive: dose: 10.0 mg/kg/injection, schedule: Q01DX009 (ip), vehicle: saline with Tween-80 105 % of control | dose: 20.0 mg/kg/injection, schedule: Q01DX009 (ip), vehicle: saline with Tween-80 103 % of control | dose: 40.0 mg/kg/injection, schedule: Q01DX009 (ip), vehicle: saline with Tween-80 113 % of control

COc1cccc2c1C(=O)c1c(O)c3c(c(O)c1C2=O)C[C@@](O)(/C(CO)=N/NC(=O)c1ccc(Cl)c(Cl)c1)C[C@@H]3OC1CC(NC(=S)Nc2ccc(F)cc2)C(O)C(C)O1 (stereo partly specified)
inactive: dose: 0.1 mg/kg/injection, schedule: Q01DX009 (ip), vehicle: water 99 % of control | dose: 0.2 mg/kg/injection, schedule: Q01DX009 (ip), vehicle: water 113 % of control | dose: 0.4 mg/kg/injection, schedule: Q01DX009 (ip), vehicle: water 109 % of control | dose: 0.8 mg/kg/injection, schedule: Q01DX009 (ip), vehicle: water 111 % of control | dose: 12.5 mg/kg/injection, schedule: Q01DX009 (ip), vehicle: water 94 % of control | dose: 25.0 mg/kg/injection, schedule: Q01DX009 (ip), vehicle: water 91 % of control and 94 % of control | dose: 50.0 mg/kg/injection, schedule: Q01DX009 (ip), vehicle: water 91 % of control | dose: 100.0 mg/kg/injection, schedule: Q01DX009 (ip), vehicle: water 92 % of control

COC(=O)C(C)N(CCCl)P1(=O)OCCCN1CCCl (stereo unspecified)
inactive: [1] 108 % of control | [7] 99 % of control | [2] 124 % of control
active: [3] 165 % of control | dose: 240.0 mg/kg/injection, schedule: Q01DX005 (ip), vehicle: saline 297 % of control | dose: 400.0 mg/kg/injection, schedule: Q01DX005 (ip), vehicle: saline with Tween-80 252 % of control

O=C(Nc1ccc(Cl)cc1)Nc1nnc2nc(C(C(=O)c3cccc([N+](=O)[O-])c3Cl)c3nc4nnc(NC(=O)Nc5ccc(Cl)cc5)n4[nH]c3=O)c(=O)[nH]n12
inactive: [1] 110 % of control | [2] 101 % of control | [3] 95 % of control

O=c1c2c(c(=O)c(=O)c1=O)Nc1ccccc1N2
inactive: [1] 100 % of control | [2] 101 % of control | [3] 107 % of control

CC(C)C(NC(=O)C(Cc1ccccc1)NC(=O)OCc1ccccc1)C(=O)OCc1ccccc1 (stereo not drawn) (Cbz-Phe-Val-OBn; configuration not given here)
inactive: dose: 12.5 mg/kg/injection, schedule: Q01DX005 (ip), vehicle: saline with Tween-80 93 % of control | dose: 25.0 mg/kg/injection, schedule: Q01DX005 (ip), vehicle: saline with Tween-80 100 % of control | dose: 50.0 mg/kg/injection, schedule: Q01DX005 (ip), vehicle: saline with Tween-80 91 % of control and 97 % of control | dose: 200.0 mg/kg/injection, schedule: Q01DX005 (ip), vehicle: saline with Tween-80 92 % of control
